Data: ChEMBL document CHEMBL1132654 (J Med Chem, 1999)
pIC50: −log10 of the molar value.

Key:
[1] = target: Integrin alpha-V/beta-3 (Homo sapiens, UniProt P05106+P06756); assay: Inhibition of Vitronectin receptor (alpha V beta 3) binding to vitronectin
[2] = target: Integrin alpha-IIb/beta-3 (Homo sapiens, UniProt P05106+P08514); assay: Inhibition of alpha IIb beta-3 integrin binding to fibrinogen; format: protein-complex assay
Sequence of Integrin alpha-IIb/beta-3 (P05106 27-788 limits assumed): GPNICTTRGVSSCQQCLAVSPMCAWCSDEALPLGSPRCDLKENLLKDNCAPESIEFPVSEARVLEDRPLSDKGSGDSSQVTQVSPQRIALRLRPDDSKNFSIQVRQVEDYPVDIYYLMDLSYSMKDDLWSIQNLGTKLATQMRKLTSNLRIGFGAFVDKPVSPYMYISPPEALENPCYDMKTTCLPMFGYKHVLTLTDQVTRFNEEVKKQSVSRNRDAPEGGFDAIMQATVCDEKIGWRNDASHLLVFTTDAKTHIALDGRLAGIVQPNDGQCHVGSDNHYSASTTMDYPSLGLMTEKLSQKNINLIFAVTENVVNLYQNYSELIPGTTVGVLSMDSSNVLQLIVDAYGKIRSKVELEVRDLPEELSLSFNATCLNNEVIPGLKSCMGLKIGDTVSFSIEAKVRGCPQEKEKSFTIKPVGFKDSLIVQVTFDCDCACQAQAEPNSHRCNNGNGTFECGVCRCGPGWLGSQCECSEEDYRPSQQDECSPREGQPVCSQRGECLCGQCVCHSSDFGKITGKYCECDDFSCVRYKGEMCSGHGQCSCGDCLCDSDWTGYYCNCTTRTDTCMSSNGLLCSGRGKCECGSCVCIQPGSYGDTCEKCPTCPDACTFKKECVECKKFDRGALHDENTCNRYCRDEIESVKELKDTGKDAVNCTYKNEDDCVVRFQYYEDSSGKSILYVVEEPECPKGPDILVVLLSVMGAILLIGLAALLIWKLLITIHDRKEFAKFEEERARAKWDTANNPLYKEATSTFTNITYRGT
Sequence of Integrin alpha-IIb/beta-3 (P08514 32-887 limits assumed): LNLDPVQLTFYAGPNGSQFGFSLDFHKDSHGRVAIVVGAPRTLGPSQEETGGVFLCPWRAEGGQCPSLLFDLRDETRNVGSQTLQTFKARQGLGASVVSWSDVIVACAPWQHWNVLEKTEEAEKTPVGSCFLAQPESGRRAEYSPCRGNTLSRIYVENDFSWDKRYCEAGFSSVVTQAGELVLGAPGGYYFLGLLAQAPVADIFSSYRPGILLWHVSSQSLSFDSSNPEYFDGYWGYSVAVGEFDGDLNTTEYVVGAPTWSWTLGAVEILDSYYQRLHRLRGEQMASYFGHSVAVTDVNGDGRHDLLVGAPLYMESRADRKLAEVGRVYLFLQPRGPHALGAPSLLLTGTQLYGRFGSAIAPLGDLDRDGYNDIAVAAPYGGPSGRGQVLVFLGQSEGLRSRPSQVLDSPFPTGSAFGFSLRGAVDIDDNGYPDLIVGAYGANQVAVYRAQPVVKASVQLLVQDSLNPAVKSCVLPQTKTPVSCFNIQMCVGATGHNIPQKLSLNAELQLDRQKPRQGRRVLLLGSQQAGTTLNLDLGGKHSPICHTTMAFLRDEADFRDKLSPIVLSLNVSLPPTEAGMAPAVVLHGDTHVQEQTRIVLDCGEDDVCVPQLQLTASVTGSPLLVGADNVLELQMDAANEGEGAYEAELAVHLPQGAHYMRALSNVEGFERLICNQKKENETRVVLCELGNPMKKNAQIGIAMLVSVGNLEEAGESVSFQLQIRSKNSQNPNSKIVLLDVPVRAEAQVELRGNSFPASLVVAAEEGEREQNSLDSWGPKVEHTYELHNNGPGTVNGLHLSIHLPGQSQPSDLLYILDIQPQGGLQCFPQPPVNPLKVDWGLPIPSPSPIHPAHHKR
Sequence of Integrin alpha-IIb/beta-3 (P08514 891-1039 limits assumed): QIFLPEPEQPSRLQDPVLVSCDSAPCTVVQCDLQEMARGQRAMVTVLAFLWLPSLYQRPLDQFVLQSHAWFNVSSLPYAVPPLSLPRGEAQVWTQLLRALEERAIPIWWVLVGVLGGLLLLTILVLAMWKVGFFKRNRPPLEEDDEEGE

Sequence of Integrin alpha-V/beta-3 (P05106 27-788 limits assumed): as the sequence (P05106 27-788 limits assumed) above
Sequence of Integrin alpha-V/beta-3 (P06756 31-889 limits assumed): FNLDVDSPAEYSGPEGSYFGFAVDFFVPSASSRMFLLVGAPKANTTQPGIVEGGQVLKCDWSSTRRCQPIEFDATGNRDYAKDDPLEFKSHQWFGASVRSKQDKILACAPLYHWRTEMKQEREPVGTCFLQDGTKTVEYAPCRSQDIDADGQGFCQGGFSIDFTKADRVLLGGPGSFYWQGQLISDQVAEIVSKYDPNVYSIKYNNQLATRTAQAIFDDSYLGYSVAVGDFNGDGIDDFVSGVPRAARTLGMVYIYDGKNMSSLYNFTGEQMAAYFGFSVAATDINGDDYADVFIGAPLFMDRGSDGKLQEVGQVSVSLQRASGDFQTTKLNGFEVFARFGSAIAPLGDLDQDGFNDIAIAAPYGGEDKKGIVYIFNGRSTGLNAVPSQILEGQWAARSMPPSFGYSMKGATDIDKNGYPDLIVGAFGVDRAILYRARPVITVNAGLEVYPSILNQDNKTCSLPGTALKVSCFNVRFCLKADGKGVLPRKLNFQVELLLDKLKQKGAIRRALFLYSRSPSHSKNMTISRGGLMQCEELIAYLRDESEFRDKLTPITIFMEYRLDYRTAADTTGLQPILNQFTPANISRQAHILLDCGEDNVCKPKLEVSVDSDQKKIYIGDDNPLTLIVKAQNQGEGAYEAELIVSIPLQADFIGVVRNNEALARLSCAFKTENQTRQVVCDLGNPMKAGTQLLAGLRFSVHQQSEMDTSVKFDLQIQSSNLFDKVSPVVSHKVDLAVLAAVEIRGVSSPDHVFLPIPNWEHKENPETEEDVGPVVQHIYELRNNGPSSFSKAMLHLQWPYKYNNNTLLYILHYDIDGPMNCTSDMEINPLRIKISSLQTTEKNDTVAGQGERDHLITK
Sequence of Integrin alpha-V/beta-3 (P06756 891-1048 limits assumed): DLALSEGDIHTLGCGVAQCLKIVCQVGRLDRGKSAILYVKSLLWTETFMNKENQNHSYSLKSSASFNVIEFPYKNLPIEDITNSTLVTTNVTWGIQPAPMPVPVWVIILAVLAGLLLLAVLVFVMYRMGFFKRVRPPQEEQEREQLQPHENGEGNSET

pIC50 [1]: 6.68
pIC50 [2]: 5.77
SMILES: NCCCC[C@H](NC(=O)[C@@H]1CCCN1C(=O)[C@H](CO)NC(=O)[C@H](CC(=O)O)NC(=O)CNC(=O)[C@H](CCCN=C(N)N)NC(=O)CN)C(=O)O
